# Measurements reported in patent publication US11414442B2, “ARF6 inhibitors and related methods” (Navigen, Inc., priority 2017, dated 2022).
# “And” between values parts separate entries of the source, which are not always exact repeats. Identical values can stand only once. “Also recorded” adds a separate entry of the source. Counter-ions that a name gives are not always drawn. Like-named read-outs stand apart in the source and are kept apart here. Where no end group is shown, it is not given here. The star is where a group is joined. Myristoyl = CCCCCCCCCCCCCC(=O)*
# Columns and labels:
# ARF6 [1] = molecular target: T1, ARF6 (Homo sapiens, UniProt P62330); test: ARF6 inhibition, biochemical fluorometric nucleotide exchange assay
# T1 sequence (P62330 whole entry, species assumed): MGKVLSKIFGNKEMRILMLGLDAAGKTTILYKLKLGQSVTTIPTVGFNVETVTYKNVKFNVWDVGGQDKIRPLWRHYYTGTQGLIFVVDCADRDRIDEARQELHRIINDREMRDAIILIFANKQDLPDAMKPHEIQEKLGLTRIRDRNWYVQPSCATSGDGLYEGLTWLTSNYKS
# Text: These ARF6 inhibitors were discovered using a high-throughput biochemical, fluorometric nucleotide exchange assay to screen 100,000 compounds from a commercially available compound library. Medicinal chemistry optimization efforts have also been conducted. In some embodiments, the clinical potential of the discovered small molecule ARF6 inhibitors can be limited by poor solubility. Accordingly, the synthesis and development of water soluble prodrugs of ARF6 inhibitors can be advantageous. […]
# [2] = Solubility in water and PBS pH 7.4 (Tables 1 and 2); assay type: physicochemical
# [3] = test system: LPS-induced acute lung injury (ALI); test: Mouse model of LPS-induced ALI, BALF cell count and BALF protein; assay type: in vivo; details: for percent reduction in LPS-induced increase in BALF cell count / percent reduction in LPS-induced increase in BALF protein: mean ± SEM
# Protocol: LPS was instilled into the trachea of anesthetized mice. […] The efficacy endpoints were total cell counts and total protein in BALF. All studies were conducted using vehicle negative controls and dexamethasone (5 mg/kg IP at T=0 and 6) as a positive control. Data were analyzed by 1-way ANOVA followed by Tukey's multiple comparison test (GRAPHPAD PRISM® software, version 6.05). […] Reductions in BALF total protein were also observed. […]
# [4] = test system: multidrug-resistant Pseudomonas aeruginosa (PA); test: Multidrug-resistant Pseudomonas aeruginosa mouse model of pneumonia; assay type: in vivo; details: NAV-AAR′ 38 and 64 mg/kg subcutaneous once daily for 6 days
# Protocol: NAV-AAR′ is also active in a multidrug-resistant Pseudomonas aeruginosa (PA) mouse model of pneumonia. […] NAV-AAR′ was administered by subcutaneous injection once daily for 6 days. The antibiotic meropenem was ineffective against MDR PA in this model.
# Stability in solution = assay type: physicochemical; details: room temperature, protected from light
# alkaline phosphatase = test: Alkaline phosphatase substrate; assay type: in vitro ADME; details: metabolized to active metabolite NAV-AAC′
# [5] = test system: Acinetobacter baumannii (AB) HUMC1; assay type: in vivo, mouse
# Protocol: Briefly, CD-1 male mice were made neutropenic with 200 mg/kg cyclophosphamide and 250 mg/kg cortisone acetate (in 0.05% Tween 80) on Days −2 and +3. On Day 0, neutropenic mice were infected with Acinetobacter baumannii (AB) HUMC1 (virulent strain; see Luo G, et al. J Antimicrob Chemother. 2012; 67:1439-45 and Luo G, et al. PloS one. 2012; 7:e29446) via inhalation. Treatment with “NAV-” compound was initiated at three hours post infection.
# Mice can be made neutropenic by injecting them with cyclophosphamide (200 mg/kg IP) and cortisone acetate (250 mg/kg, subcutaneously) on day −2 and +3 relative to infection. To induce AB pneumonia, neutropenic mice can be infected by aerosolizing AB into an inhalational chamber for one hour through a nebulizer as previously described (see Luo G, et al. J Antimicrob Chemother. 2012; 67:1439-45). Dosing and frequency of treatment can be dictated by the PK and ALI studies conducted in Example 6. Placebo mice can receive vehicle. […] Treatment can begin three hours after infection and continue through Day +7, and survival of mice (the primary endpoint) can be followed for 28 days post-infection. Each group may comprise 10 mice and each experiment may be repeated once (for a total of 20 mice per treatment group) to detect a three-day difference in survival by the Log Rank test (α=0.05).
# [6] = PK of NAV-A after IV dosing of NAV-B to rats; assay type: in vivo, rat
# Protocol: (§1) The PK profile of NAV-A was determined following intravenous (IV) and intraperitoneal (IP) administration of prodrug NAV-B to rats and mice, respectively. […] In this experiment, only the appearance and PK profile of NAV-A was followed, using an established LC/MS method. […] Of note was the very rapid appearance of NAV-A in plasma of the rats receiving NAV-B IV; the highest plasma concentration observed was at five minutes post-dose, the first time point measured. […] Near peak plasma levels of NAV-A were observed within 30 minutes.
# [7] = PK of NAV-A after IP dosing of NAV-B to mice; assay type: in vivo, mouse; details: six-hour period after IP NAV-B 43 mg/kg
# Protocol: as §1
# [8] = test system: LPS-induced endotoxic shock; details: LPS 25 mg/kg IP, peptide IV; cited from earlier work
# ARF6 [9] = molecular target: T1, ARF6; details: HMVEC-D cells; cited from earlier work
# VE-cadherin = details: cited from earlier work
# vascular leak = details: in vivo; cited from earlier work
# [10] = Solubility of ARF6 prodrugs in various vehicles (Table 4); assay type: physicochemical
# Plasmodium berghei ANKA = test: Mouse model of cerebral malaria; details: NAV-B 42.75 mg/kg IP daily for 11 days from day 3; 14 days post-infection; dihydrochloride
# Text: Mice were infected with Plasmodium berghei ANKA on day 0. Treatment was initiated on day 3. […] Surviving mice were sacrificed on day 14.
# [11] = NAV-AAR′ 38 mg/kg or 64 mg/kg intravenous
# [12] = Table 1, water, read-out: Solubility Water
# [13] = aqueous buffer, Table 1, PBS pH 7.4, read-out: Solubility PBS pH 7.4
molecule,measurement,setting,value
Cc1ccc(-c2c[nH]c3c(-c4ccc(Cl)cc4)c(Cc4ccccc4)nn3c2=O)c(OP(=O)([O-])[O-])c1.[Na+].[Na+] [NAV-AAR′],IC50,"ARF6 [1]; Table 2, read-out: ARF6 IC50",1000 to 2000 nM
same,IC50,"ARF6 [1]; approximately, read-out: ARF6 IC50",1000 to 2000 nM
same,solubility,"[2]; Table 2, water, read-out: Solubility Water",> 50 mg/mL
same,number of total (nucleated) cells in BALF,[3]; [11],significant reductions; also recorded: decrease
same,protein concentration in BALF,[3]; [11],significant reductions; also recorded: decrease
same,survival in MDR PA pneumonia,[4],improve survival; also recorded: increase in survival
same,stable in solution,Stability in solution,up to 4 months
same,substrate for alkaline phosphatase,alkaline phosphatase,substrate for alkaline phosphatase
same,solubility,Aqueous solubility,≤ 50 mg/mL
"O=c1cc(-c2ccc([N+](=O)[O-])cc2O)n2nc(Cc3ccccc3)c(-c3ccc(Cl)cc3)c2[nH]1 [NAV-A, 2-Benzyl-3-(4-chlorophenyl)-7-(2-hydroxy-4-nitro-phenyl)-4H-pyrazolo[1,5-a]pyrimidin-5-one]",IC50,"ARF6 [1]; Table 1, read-out: ARF6 IC50",2700 nM
same,solubility,[2]; [12],35 µM
same,solubility,[2]; [13],8 µM
same,percent reduction in LPS-induced increase in BALF cell count,"[3]; 30 mg/kg IP, T = 0",57 ± 9%
same,percent reduction in LPS-induced increase in BALF protein,"[3]; 30 mg/kg IP, T = 0",36 ± 13%
same,percent reduction in LPS-induced increase in BALF cell count,"[3]; 30 mg/kg IP, T = 3",55 ± 3%
same,percent reduction in LPS-induced increase in BALF protein,"[3]; 30 mg/kg IP, T = 3",23 ± 12%
same,percent reduction in LPS-induced increase in BALF cell count,"[3]; 60 mg/kg IP, T = 0",95 ± 4%
same,percent reduction in LPS-induced increase in BALF protein,"[3]; 60 mg/kg IP, T = 0",46 ± 24%
same,percent reduction in LPS-induced increase in BALF cell count,"[3]; 60 mg/kg IP, T = 3",91 ± 1%
same,percent reduction in LPS-induced increase in BALF protein,"[3]; 60 mg/kg IP, T = 3",55 ± 6%
same,BALF total protein,[3]; NAV-A IP,Reductions
same,total number of cells in BALF,"[3]; NAV-A IP 60 mg/kg (T=0), 30 mg/kg (T=3), 60 mg/kg (T=3)",significant decreases
same,appearance and weight gain of treated mice,[5]; NAV-A 30 mg/kg IP once daily,appeared healthy with normal weight gain
same,survival,"[5]; NAV-A 30 mg/kg IP once daily for seven days, from 3 h post infection, DMA/PEG300 vehicle",50%
same,time of highest plasma concentration observed,"[6]; NAV-A after IV NAV-B, rats, first time point measured",five
same,exposure of NAV-A,[6]; after administration of NAV-B,excellent exposure
same,plasma levels of NAV-A,[7],high and sustained plasma levels
"MyrARF6 2-13: myristoylated peptide composed of amino acids 2-13 of ARF6, understood to inhibit ARF nucleotide exchange (Myristoyl-GKVLSKIFGNKE; UniProt P62330 2-13, looked up, fragment)",survival during endotoxemia,[8],enhanced survival
same,ARF6 activation,ARF6 [9],reduced ARF6 activation
same,VE-cadherin at cell junctions,VE-cadherin,increased VE-cadherin at cell junctions
same,leak of Evans blue dye from the blood into lungs and kidneys,vascular leak,prevented the leak
"NCCCC[C@H](N)C(=O)Oc1cc([N+](=O)[O-])ccc1-c1cc(=O)[nH]c2c(-c3ccc(Cl)cc3)c(Cc3ccccc3)nn12 [NAV-B, [2-[2-benzyl-3-(4-chlorophenyl)-5-oxo-4H-pyrazolo[1,5-a]pyrimidin-7-yl]-5-nitro-phenyl] (2S)-2,6-diaminohexanoate dihydrochloride]",IC50,"ARF6 [1]; Table 1, read-out: ARF6 IC50",2600 nM
same,IC50,"ARF6 [1]; Table 4, read-out: ARF6 inhibition IC50",2600 nM
same,solubility,[2]; [12],425 µM
same,solubility,[2]; [13],1.7 µM
same,solubility,"[10]; 20 mM Na citrate buffer, pH 3.1, aqueous buffer, kinetic from dmso stock, diluted from 10 mM solution in DMSO, read-out: Solubility (μM) 20 mM Na Citrate, pH 3.1",280 µM
same,solubility,"[10]; 0.1% Tween 80 in D5W, aqueous with cosolvent or surfactant or cyclodextrin, kinetic from dmso stock, diluted from 10 mM solution in DMSO, read-out: Solubility (μM) 0.1% Tween 80 in D5W",42 µM
same,solubility,"[10]; DPBS, pH 7.4, aqueous buffer, kinetic from dmso stock, diluted from 10 mM solution in DMSO, read-out: Solubility (μM) DPBS, pH 7.4",1 µM
same,solubility,"[10]; saline or isotonic, thermodynamic from solid, D5W, prepared from powder, read-out: Solubility (μM) D5W Prepared from powder",14000 µM
same,solubility,"[10]; water, kinetic from dmso stock, diluted from 10 mM solution in DMSO, read-out: Solubility (μM) H2O",400 µM
same,concentration of cells in BALF,[3]; NAV-B 42.75 mg/kg IP,significant effect
same,concentration of protein in BALF,[3]; NAV-B 42.75 mg/kg IP,significant effect
same,reduction in LPS-induced BALF cell count,"[3]; NAV-B 42.75 mg/kg IP at T=0 (equivalent to 30 mg/kg NAV-A), FIG. 10A marks a and b, dihydrochloride",62% and 100%
same,reduction in BALF cell count,[3]; NAV-B 43 mg/kg IP at T=0,70%
same,survival,"[5]; NAV-B 42.75 mg/kg IP once daily for 7 days (equivalent to NAV-A 30 mg/kg), normal saline vehicle",90%
same,solubility,"Aqueous solubility; acidic aqueous media, aqueous buffer",> 50 mg/mL
same,survival of malaria-infected mice,Plasmodium berghei ANKA,reduced mortality; also recorded: significant improvement in survival
